Assay results from PubChem BioAssay (NCI).
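Briefly, cells in 96-well plates were exposed to five compound concentrations for 48 h, and endpoints were estimated by linear interpolation. GI50 is the concentration that inhibits growth by half. At the TGI there is no net growth.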

Tests used:
Test in all cases: NCI tumour cell line growth inhibition, 48 h
SK-MEL-28 melanoma = test system: SK-MEL-28 melanoma
M14 melanoma = test system: M14 melanoma
OVCAR-5 ovarian = test system: OVCAR-5 ovarian
MOLT-4 leukemia = test system: MOLT-4 leukemia
CAKI-1 renal = test system: CAKI-1 renal
CCRF-CEM leukemia = test system: CCRF-CEM leukemia
SNB-75 CNS = test system: SNB-75 CNS
LOX IMVI melanoma = test system: LOX IMVI melanoma

Compound	TGI (SK-MEL-28 melanoma) [µM]	TGI (M14 melanoma) [µM]	TGI (OVCAR-5 ovarian) [µM]	TGI (MOLT-4 leukemia) [µM]	TGI (CAKI-1 renal) [µM]	TGI (CCRF-CEM leukemia) [µM]	TGI (SNB-75 CNS) [µM]	TGI (LOX IMVI melanoma) [µM]	GI50 (SK-MEL-28 melanoma) [µM]	GI50 (LOX IMVI melanoma) [µM]	GI50 (M14 melanoma) [µM]	GI50 (OVCAR-5 ovarian) [µM]	GI50 (MOLT-4 leukemia) [µM]	GI50 (CAKI-1 renal) [µM]	GI50 (CCRF-CEM leukemia) [µM]	GI50 (SNB-75 CNS) [µM]
CCCN(CCC)c1c([N+](=O)[O-])cc(C(N)=O)cc1[N+](=O)[O-]	> 100	> 100	> 100	> 100	> 100	> 100	> 100									
CC(C(=O)C(C)O[Si](c1ccccc1)(c1ccccc1)C(C)(C)C)=P(c1ccccc1)(c1ccccc1)c1ccccc1 (stereo unspecified)		14.7	24.9	13.5		15.8	8.11	11.1								
O=C1CCC(=O)C(C(=O)CCC(=O)Nc2ccc(Cl)cc2)C1 (stereo unspecified)		> 100	> 100	> 100	> 100	> 100		> 100								
COC(=O)C([O][Ge]([CH3])([CH3])[CH3])c1ccccc1 (stereo unspecified)	> 100	> 100	> 100	> 100	> 100	> 100	> 100	> 100	> 100	> 100	> 100	> 100	> 100	> 100	> 100	> 100
COc1ccccc1NC(=O)NS(=O)(=O)c1ccccc1	> 100	> 100	> 100		> 100		> 100	> 100								
O=C1/C(=C/c2ccc(Cl)cc2)COc2ccc(Br)cc21	> 100		> 100	> 100		> 100	> 100	> 100								
O=C1NC(=Nc2ccccc2Cl)SC1C(=O)Nc1ccc([N+](=O)[O-])cc1[N+](=O)[O-] (stereo unspecified)	> 100	> 100	> 100	> 100	> 100	> 100	> 100									
CN(C)/C=C/C(=O)c1cccc(C(=O)/C=C/N(C)C)n1	> 100	> 100	> 100	> 100		> 100	> 100	> 100								
CC1CC(=O)CC[C@@H]1OCc1ccccc1 (stereo partly specified)		> 100	> 100	> 100	> 100	> 100	> 100	> 100								
Cc1nc(=O)n2c(c1C(=O)Nc1ccc(Cl)cc1)NCCC2	> 100	> 100	> 100	> 100	> 100	> 100		> 100								
COc1cccc(C2N3CCCCC3[C@@H]3c4[nH]c5ccccc5c4CCN23)c1OC (stereo partly specified)	30.4	29.6	29.4	36.6	33.5	35.4										
O=[P+](O)c1cc2c3ccccc3ccc2c2ccccc12	> 100	> 100		> 100		> 100	> 100	> 100								
Cc1ccc(/C=C2\CN(C(=O)CCN3CCC(=NO)CC3)C/C(=C\c3ccc(C)cc3)C2=O)cc1	4.63		3.47					0.397	2.06	0.185		1.79				
COc1cc2ccc(C(=O)O)cc2cc1OC	> 100	> 100	> 100	> 100		> 100	> 100	> 100								
NC(=O)COc1ccc(Br)cc1Br	> 100	> 100	> 100	> 100	> 100		> 100									
CC(C)=CCCC1(C)C=Cc2c(ccc3c2[nH]c2cc(O)c(C)cc23)O1 (stereo unspecified)	> 2.5	7.44	> 25	11.2		15.2		8.19		4.53	3.92		4.16		4.97	
CCc1cc2c(c3[nH]ccc13)[C@@H](C)C[C@H]2C	30	34.4		38.2	34.7	43.4	38	25.3								
CC(C)S(=O)(=O)ON1C(=O)c2ccc([N+](=O)[O-])cc2C1=O	> 100	> 100	> 100		> 100	> 100	> 100									
CC(=O)[O-].CC(=O)[O-].CC(=O)[O-].CC(=O)[O-].CO.CO.CO.[Rh+2].[Rh+2].c1ccc(-c2ccccn2)nc1	> 100	> 100	> 100	> 100		> 100	> 100	> 100	> 100	> 100	> 100	> 100	> 100		44.6	> 100
CCOc1c(Cc2ccccc2)c(=O)n2c3ccccc3n3c(=O)n(C)c(=O)c1c23	> 100	> 100	> 100	> 100	> 100		81.2	> 100								
O=C1/C(=C/c2ccccc2)CN(C(=O)Oc2ccccc2)C/C1=C\c1ccccc1	> 100	> 100	> 100			23.9	17.5	29.9								
